Laboratory results published in patent US7943628B2, “Pyrimidine derivatives” (Pfizer Limited, priority 2005, dated 2011).

Molecular target: T1, histamine H4 receptor (Homo sapiens, UniProt Q9H3N8)
T1 construct: expressed in transfected cells; host or cells: CHO cells
Assay: H4 binding, method 1 ([3H]-histamine filtration binding on CHO cell membranes)
Details: for Ki: H4 binding, method 1, Ki calculated from IC50 (Cheng-Prussoff)
Summary of the method: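 Membranes from CHO cells expressing human H4 receptor (20-35 μg/well) incubated 90 min at room temperature with 3 nM [3H]-histamine in 50 mM Tris-HCl pH 7.4, ± competitor. Bound label separated by filtration on PEI-soaked GF/B filters and counted by scintillation; non-specific binding with 10 μM JNJ7777120.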

Row | Ki [nM] | SMILES | other results
1 | 49.3 | CN[C@H]1CCN(c2cc(NCCC(C)(C)C)nc(N)n2)C1 [Example 211, N^4-(3,3-Dimethylbutyl)-6-[(3S)-3-(methylamino)pyrrolidin-1-yl]pyrimidine-2,4-diamine] | –
2 | 90.3 | CNc1cc(N2CC[C@@H](NC)C2)nc(N)n1 [Example 221, N^4-Methyl-6-[(3R)-3-(methylamino)pyrrolidin-1-yl]pyrimidine-2,4-diamine] | –
3 | 57.3 | CN1CCN(c2cc(NCCC(C)(C)C)nc(N)n2)CC1 [Example 102, N^4-(3,3-Dimethylbutyl)-6-(4-methylpiperazin-1-yl)pyrimidine-2,4-diamine] | –
4 | 5.8 | CN[C@@H]1CCN(c2cc(NC34CC(C3)C4)nc(N)n2)C1 [Example 138, N^4-Bicyclo[1.1.1]pent-1-yl-6-[(3R)-3-(methylamino)pyrrolidin-1-yl]pyrimidine-2,4-diamine] | –
5 | 1.13 | CC(C)CNc1cc(N2CCCN(C)CC2)nc(N)n1 [Example 135, N^4-Isobutyl-6-(4-methyl-1,4-diazepan-1-yl)pyrimidine-2,4-diamine] | –
6 | 839 | Nc1nc(NC2CC2)cc(N2CCC(N)CC2)n1 [Example 269, 6-(4-Aminopiperidin-1-yl)-N^4-cyclopropylpyrimidine-2,4-diamine] | –
7 | 7.21 | Nc1nc(NCC2CC2)cc(N2CC(N3CCCC3)C2)n1 [Example 136, N^4-(Cyclopropylmethyl)-6-(3-pyrrolidin-1-ylazetidin-1-yl)pyrimidine-2,4-diamine] | –
8 | 5190 | c1ccc(CCNc2cc(N[C@H]3CCNC3)ncn2)cc1 [Example 315, N-(2-Phenylethyl)-N′-[(3S)-pyrrolidin-3-yl]pyrimidine-4,6-diamine] | –

Second part, the compound before the results:

Row | SMILES | Ki [nM] | other results
9 | CC(C)(C)CNc1cc(N2C[C@@H]3CCCN[C@@H]3C2)nc(N)n1 [Example 166, N^4-(2,2-Dimethylpropyl)-6-[(4aS,7aS)-octahydro-6H-pyrrolo[3,4-b]pyridin-6-yl]pyrimidine-2,4-diamine] | 3.99 | –
10 | CC(C)(C)CNc1cc(N2CCN(C3CNC3)CC2)ncn1 [Example 303, 6-(4-Azetidin-3-ylpiperazin-1-yl)-N-(2,2-dimethylpropyl)pyrimidin-4-amine] | – | inhibition at 10 µM (1.5 h): 38%
11 | CNC1CN(c2cc(NCCOC)nc(N)n2)C1 [Example 182, N^4-(2-Methoxyethyl)-6-[3-(methylamino)azetidin-1-yl]pyrimidine-2,4-diamine] | 19.8 | –
12 | CC(C)(C)CCNc1cc(N[C@H]2CCN(Cc3ccccc3)C2)ncn1 [Example 289, N-[(3S)-1-Benzylpyrrolidin-3-yl]-N′-(3,3-dimethylbutyl)pyrimidine-4,6-diamine] | – | inhibition at 10 µM (1.5 h): 44%
13 | CNc1cc(N2CC(C)(NC)C2)nc(N)n1 [Example 248, N^4-Methyl-6-[3-methyl-3-(methylamino)azetidin-1-yl]pyrimidine-2,4-diamine] | 329 | –
14 | c1nc(NC[C@H]2CCCO2)cc(N[C@H]2CCNC2)n1 [Example 319, N-[(3S)-Pyrrolidin-3-yl]-N′-[(2R)-tetrahydrofuran-2-ylmethyl]pyrimidine-4,6-diamine] | 6010 | –
15 | C[C@@H]1CN(c2cc(NCc3ccc(F)cc3)nc(N)n2)CCN1 [Example 247, N^4-(4-Fluorobenzyl)-6-[(3R)-3-methylpiperazin-1-yl]pyrimidine-2,4-diamine] | 312 | –
16 | CN[C@@H]1CCN(c2cc(NC(C)C)nc(N)n2)C1 [Example 286, N^4-lsopropyl-6-[(3R)-3-(methylamino)pyrrolidin-1-yl]pyrimidine-2,4-diamine] | 1940 | –
17 | CN1C[C@@H]2C[C@H]1CN2c1cc(NCCC(C)(C)C)ncn1 [Example 5, N-(3,3-Dimethylbutyl)-6-[(1S,4S)-5-methyl-2,5-diazabicyclo[2.2.1]hept-2-yl]pyrimidin-4-amine] | 263 | –
18 | CCCNc1cc(N2CCCC(NC)C2)nc(N)n1 (stereo not drawn) [Example 323, 6-[3-(Methylamino)piperidin-1-yl]-N^4-propylpyrimidine-2,4-diamine] | – | inhibition at 20 µM (1.5 h): 85%
